Test [1] can be described thus: Binding affinity to bovine trypsin after 10 mins. Also on record: species or system Bos taurus. The settings on record: read-out: Ki app.
In the next test the target is Coagulation factor X (Homo sapiens, UniProt P00742). Nature of the test: Binding affinity to human factor 10a after 10 mins. As to conditions: read-out: Ki app.
Another test addresses Prothrombin (Homo sapiens, UniProt P00734). Briefly: Binding affinity to human thrombin after 10 mins. As to conditions: read-out: Ki app.
For a further test, the system named is Plasma. Briefly: Anticoagulant activity in human plasma assessed as concentration required to double prothrombin time. Format: functional, cell-free.

Coagulation factor X, sequence (P00742 41-179 limits assumed): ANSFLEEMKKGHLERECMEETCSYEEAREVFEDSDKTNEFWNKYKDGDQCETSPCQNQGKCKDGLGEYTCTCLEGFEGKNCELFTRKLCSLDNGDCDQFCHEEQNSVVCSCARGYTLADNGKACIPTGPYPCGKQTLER
Coagulation factor X, sequence (P00742 235-488 limits assumed): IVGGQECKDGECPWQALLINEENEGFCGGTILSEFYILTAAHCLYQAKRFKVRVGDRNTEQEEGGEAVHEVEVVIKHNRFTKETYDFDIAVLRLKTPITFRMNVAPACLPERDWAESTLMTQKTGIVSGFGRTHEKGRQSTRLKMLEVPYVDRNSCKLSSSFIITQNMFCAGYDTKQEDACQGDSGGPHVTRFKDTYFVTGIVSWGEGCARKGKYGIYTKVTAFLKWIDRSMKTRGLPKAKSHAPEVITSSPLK

Turning to `O=C(Nc1ccc(Cl)cc1)c1cc(Cl)ccc1NC(=O)c1scc(Cn2nccn2)c1Cl`, the Ki in test [1] is more than 5000 nM; on Coagulation factor X, 3.5 nM; on Prothrombin, 3300 nM. Also, in the test with Plasma, the Cp is 83 µM.

Consider `CN1CCN(Cc2c(C(=O)Nc3ccc(Cl)cc3C(=O)Nc3ccc(Cl)cc3)sc3ccccc23)CC1`, for which the Ki was more than 5000 nM in test [1], 20 nM on Coagulation factor X and 1000 nM on Prothrombin.

`CCOC(=O)CN(C)Cc1csc(C(=O)Nc2ccc(Cl)cc2C(=O)Nc2ccc(Cl)cc2)c1Cl`: the Ki in test [1] was more than 5000 nM; at Coagulation factor X, 5.2 nM; at Prothrombin it was 2300 nM. Moreover, the Cp with Plasma was 160 µM.

In the case of `Cc1cccc2sc(C(=O)Nc3ccc(Cl)cc3C(=O)Nc3ccc(Cl)cc3)c(Cl)c12`, the Ki (in test [1]; at Coagulation factor X; at Prothrombin) was more than 5000 nM in each case.

On to `CN(C)Cc1ccc2c(Cl)c(C(=O)Nc3ccc(Cl)cc3C(=O)Nc3ccc(Cl)cc3)sc2c1`, for which the Ki in test [1] is more than 5000 nM; at Coagulation factor X it was 14 nM; on Prothrombin it was more than 5000 nM.

In the case of `CN(C)CCCN(C)Cc1csc(C(=O)Nc2ccc(Cl)cc2C(=O)Nc2ccc(Cl)cc2)c1Cl`, the Ki in test [1] was more than 5000 nM; on Coagulation factor X it was 0.6 nM; on Prothrombin, 190 nM. In addition, the Cp with Plasma stood at 2.9 µM.

On to `CN1CCC(N(C)Cc2csc(C(=O)Nc3ccc(Cl)cc3C(=O)Nc3ccc(Cl)cc3)c2Cl)CC1`, for which the Ki is more than 5000 nM in test [1], 0.38 nM on Coagulation factor X and 310 nM at Prothrombin. Also, the Cp in the test on Plasma was found to be 3.2 µM.

Turning to `O=C(Nc1ccc(Cl)cc1)c1cc(Cl)ccc1NC(=O)c1scc(CNCCOCCO)c1Cl`, the Ki in test [1] was more than 5000 nM; at Coagulation factor X, 3.4 nM; on Prothrombin, 3200 nM. For the same compound, the Cp with Plasma was determined as 20 µM.

Regarding `COCCOCCOCc1csc(C(=O)Nc2ccc(Cl)cc2C(=O)Nc2ccc(Cl)cc2)c1Cl`, the results for the Ki (in test [1]; at Coagulation factor X; at Prothrombin) were more than 5000 nM, 10 nM and 3600 nM, respectively. Moreover, the Cp in the test on Plasma was 95 µM.

For the compound `CCN(CC)CCN(C)Cc1csc(C(=O)Nc2ccc(Cl)cc2C(=O)Nc2ccc(Cl)cc2)c1Cl`, the Ki is more than 5000 nM in test [1], 0.52 nM at Coagulation factor X and 120 nM on Prothrombin. In addition, the Cp in the test on Plasma was 3.9 µM.

`COCCOCc1csc(C(=O)Nc2ccc(Cl)cc2C(=O)Nc2ccc(Cl)cc2)c1Cl`: the Ki was more than 5000 nM in test [1], 12 nM on Coagulation factor X and more than 5000 nM at Prothrombin. The Cp in the test on Plasma stood at 110 µM.

Turning to `CS(=O)(=O)Cc1csc(C(=O)Nc2ccc(Cl)cc2C(=O)Nc2ccc(Cl)cc2)c1Cl`, the Ki in test [1] was more than 5000 nM; at Coagulation factor X, 2.1 nM; at Prothrombin it was more than 5000 nM. In the test with Plasma, the Cp stood at 14 µM.

For the compound `O=C(Nc1ccc(Cl)cc1)c1cc(Cl)ccc1NC(=O)c1scc(CN2CCSCC2)c1Cl`, the results for the Ki (in test [1]; on Coagulation factor X; at Prothrombin) were more than 5000 nM, 4.8 nM and more than 5000 nM, respectively. Moreover, the Cp in the test on Plasma amounted to 400 µM.

With `CC(=O)N1CCN(Cc2csc(C(=O)Nc3ccc(Cl)cc3C(=O)Nc3ccc(Cl)cc3)c2Cl)CC1`, the Ki in test [1] is more than 5000 nM; on Coagulation factor X, 6 nM; at Prothrombin, 4400 nM.

Take `Cc1c(C(=O)Nc2ccc(Cl)cc2C(=O)Nc2ccc(Cl)cc2)sc2ccccc12`: the Ki in test [1] is more than 5000 nM; on Coagulation factor X, 0.82 nM; on Prothrombin it was more than 5000 nM.

On to `CN(CCN1CCCC1)Cc1csc(C(=O)Nc2ccc(Cl)cc2C(=O)Nc2ccc(Cl)cc2)c1Cl`, for which the Ki in test [1] was more than 5000 nM; on Coagulation factor X it was 0.3 nM; on Prothrombin it was 160 nM. Moreover, the Cp in the test on Plasma turned out to be 5 µM.

For the compound `CN1CCN(Cc2cc(Cl)c(C(=O)Nc3ccc(Cl)cc3C(=O)Nc3ccc(Cl)cc3)s2)CC1`, the results for the Ki (in test [1]; on Coagulation factor X; at Prothrombin) were more than 5000 nM, 5.6 nM and 1000 nM, respectively. Moreover, the Cp in the test on Plasma was found to be 13 µM.

Take `CN1CCN(Cc2ccc3c(Cl)c(C(=O)Nc4ccc(Cl)cc4C(=O)Nc4ccc(Cl)cc4)sc3c2)CC1`: the Ki was more than 5000 nM in test [1], 21 nM on Coagulation factor X and more than 5000 nM on Prothrombin.

On to `O=C(Nc1ccc(Cl)cc1)c1cc(Cl)ccc1NC(=O)c1scc(Cn2ncnn2)c1Cl`, for which the Ki in test [1] was more than 5000 nM; at Coagulation factor X, 2 nM; on Prothrombin, more than 5000 nM. Further, the Cp in the test with Plasma worked out at 63 µM.

As for `Cc1c(CN2CCN(C)CC2)sc(C(=O)Nc2ccc(Cl)cc2C(=O)Nc2ccc(Cl)cc2)c1Cl`, the Ki was more than 5000 nM in test [1], 10 nM on Coagulation factor X and 1500 nM at Prothrombin. Moreover, the Cp in the test with Plasma was 58 µM.

Take `O=C(Nc1ccc(Cl)cc1)c1cc(Cl)ccc1NC(=O)c1scc(Cn2cnnn2)c1Cl`: the Ki in test [1] is more than 5000 nM; on Coagulation factor X, 1.7 nM; at Prothrombin, more than 5000 nM. Also, the Cp with Plasma was 29 µM.

Regarding `CCCNCc1sc(C(=O)Nc2ccc(Cl)cc2C(=O)Nc2ccc(Cl)cc2)c(Cl)c1CNCCC`, the results for the Ki (in test [1]; at Coagulation factor X; on Prothrombin) were more than 5000 nM, 7.5 nM and 1500 nM, respectively. Also, the Cp in the test with Plasma is 19 µM.

For the compound `C[S+]([O-])Cc1csc(C(=O)Nc2ccc(Cl)cc2C(=O)Nc2ccc(Cl)cc2)c1Cl` (stereo unspecified), the Ki in test [1] was more than 5000 nM; at Coagulation factor X, 0.4 nM; on Prothrombin, 970 nM. Also, the Cp in the test on Plasma was determined as 5.6 µM.

For `Cc1sc(C(=O)Nc2ccc(Cl)cc2C(=O)Nc2ccc(Cl)cc2)c(Cl)c1CN1CCN(C)CC1`, the values for the Ki (in test [1]; at Coagulation factor X; on Prothrombin) were more than 5000 nM, 12 nM and 4400 nM, respectively. Also, the Cp in the test on Plasma stood at 25 µM.

For `O=C(Nc1ccc(Cl)cc1)c1cc(Cl)ccc1NC(=O)c1scc(COCC(O)CO)c1Cl` (stereo unspecified), the Ki in test [1] is more than 5000 nM; at Coagulation factor X, 5.7 nM; at Prothrombin, 2400 nM. Also, the Cp in the test with Plasma turned out to be 30 µM.

Consider `CN(Cc1csc(C(=O)Nc2ccc(Cl)cc2C(=O)Nc2ccc(Cl)cc2)c1Cl)CC(O)CO` (stereo unspecified), for which the Ki was more than 5000 nM in test [1], 1.4 nM on Coagulation factor X and 990 nM on Prothrombin. The Cp in the test with Plasma worked out at 11 µM.

Regarding `O=C(Nc1ccc(Cl)cc1)c1cc(Cl)ccc1NC(=O)c1sc(Cn2ccnc2)cc1Cl`, the Ki is more than 5000 nM in test [1], 7.2 nM on Coagulation factor X and 510 nM on Prothrombin. In the test on Plasma, the Cp was 24 µM.

With `CCN1CCN(Cc2csc(C(=O)Nc3ccc(Cl)cc3C(=O)Nc3ccc(Cl)cc3)c2Cl)CC1`, the Ki in test [1] was more than 5000 nM; on Coagulation factor X it was 1.6 nM; at Prothrombin it was more than 5000 nM. Besides, in the test on Plasma, the Cp stood at 12 µM.

`CC1(C)OCC(COCc2csc(C(=O)Nc3ccc(Cl)cc3C(=O)Nc3ccc(Cl)cc3)c2Cl)O1` (stereo unspecified): the Ki is more than 5000 nM in test [1], 20 nM on Coagulation factor X and more than 5000 nM at Prothrombin.

In the case of `CN(C)CCN(C)Cc1csc(C(=O)Nc2ccc(Cl)cc2C(=O)Nc2ccc(Cl)cc2)c1Cl`, the figures for the Ki (in test [1]; at Coagulation factor X; on Prothrombin) were more than 5000 nM, 0.45 nM and 160 nM, respectively. Further, the Cp in the test on Plasma came out at 4.6 µM.

Regarding `CN(CCOCCO)Cc1csc(C(=O)Nc2ccc(Cl)cc2C(=O)Nc2ccc(Cl)cc2)c1Cl`, the Ki is more than 5000 nM in test [1], 1.5 nM on Coagulation factor X and 1100 nM at Prothrombin. Besides, in the test with Plasma, the Cp is 8.8 µM.

As for `O=C(Nc1ccc(Cl)cc1)c1cc(Cl)ccc1NC(=O)c1sc2ccccc2c1Cl`, the Ki (in test [1]; on Prothrombin) was more than 5000 nM each time.

On to `O=C(Nc1ccc(Cl)cc1)c1cc(Cl)ccc1NC(=O)c1scc(Cn2ccnc2)c1Cl`, for which the results for the Ki (in test [1]; on Coagulation factor X; on Prothrombin) were more than 5000 nM, 1.9 nM and 1000 nM, respectively. Also, the Cp with Plasma turned out to be 18 µM.

Consider `O=C(Nc1ccc(Cl)cc1)c1cc(Cl)ccc1NC(=O)c1scc(Cn2cccn2)c1Cl`, for which the Ki is more than 5000 nM in test [1], 2.1 nM on Coagulation factor X and 550 nM on Prothrombin. Further, in the test with Plasma, the Cp is 49 µM.

Consider `CSCc1csc(C(=O)Nc2ccc(Cl)cc2C(=O)Nc2ccc(Cl)cc2)c1Cl`, for which the Ki in test [1] is more than 5000 nM; on Coagulation factor X, 0.8 nM; at Prothrombin, more than 5000 nM. The Cp in the test with Plasma is more than 200 µM.

For the compound `O=C(Nc1ccc(Cl)cc1)c1cc(Cl)ccc1NC(=O)c1scc(Cn2cncn2)c1Cl`, the Ki was more than 5000 nM in test [1], 1.6 nM at Coagulation factor X and 2400 nM at Prothrombin. In addition, the Cp in the test on Plasma came out at 18 µM.

For the compound `Cc1csc(C(=O)Nc2ccc(Cl)cc2C(=O)Nc2ccc(Cl)cc2)c1Cl`, the values for the Ki (in test [1]; on Coagulation factor X; at Prothrombin) were more than 5000 nM, 18 nM and more than 5000 nM, respectively.

Regarding `O=C(Nc1ccc(Cl)cc1)c1cc(Cl)ccc1NC(=O)c1scc(CNCCCn2ccnc2)c1Cl`, the Ki in test [1] was more than 5000 nM; at Coagulation factor X, 4.6 nM; at Prothrombin, 1800 nM. For the same compound, the Cp with Plasma was found to be 24 µM.

In the case of `O=C(Nc1ccc(Cl)cc1)c1cc(Cl)ccc1NC(=O)c1sc(CN2CCOCC2)cc1Cl`, the Ki is more than 5000 nM in test [1], 34 nM at Coagulation factor X and more than 5000 nM on Prothrombin. In addition, in the test on Plasma, the Cp was more than 500 µM.

For the compound `O=C(Nc1ccc(Cl)cc1)c1cc(Cl)ccc1NC(=O)c1scc(CN2CCOCC2)c1Cl`, the Ki was more than 5000 nM in test [1], 6.2 nM on Coagulation factor X and 2300 nM on Prothrombin. Moreover, the Cp in the test with Plasma amounted to 59 µM.

For the compound `Cc1ccc2c(Cl)c(C(=O)Nc3ccc(Cl)cc3C(=O)Nc3ccc(Cl)cc3)sc2c1`, the Ki in test [1] is more than 5000 nM; on Coagulation factor X, 0.95 nM; at Prothrombin, more than 5000 nM.

`Cc1cc(Cl)c(C(=O)Nc2ccc(Cl)cc2C(=O)Nc2ccc(Cl)cc2)s1`: the Ki in test [1] is more than 5000 nM; at Coagulation factor X, 24 nM; on Prothrombin, more than 5000 nM.

With `CN(CCO)Cc1csc(C(=O)Nc2ccc(Cl)cc2C(=O)Nc2ccc(Cl)cc2)c1Cl`, the Ki was more than 5000 nM in test [1], 0.8 nM at Coagulation factor X and 830 nM on Prothrombin. Further, the Cp in the test with Plasma is 7 µM.

Take `CN(C)Cc1c(C(=O)Nc2ccc(Cl)cc2C(=O)Nc2ccc(Cl)cc2)sc2ccccc12`: the Ki in test [1] was more than 5000 nM; on Coagulation factor X, 9 nM; at Prothrombin, 1200 nM.

Regarding `O=C(O)CN1CCN(Cc2ccc3c(Cl)c(C(=O)Nc4ccc(Cl)cc4C(=O)Nc4ccc(Cl)cc4)sc3c2)CC1`, the Ki in test [1] was more than 5000 nM; at Coagulation factor X, 9.5 nM; on Prothrombin it was more than 5000 nM.

The values are drawn from ChEMBL document CHEMBL1146367, “Substituted thiophene-anthranilamides as potent inhibitors of human factor Xa” (Bioorg Med Chem, 2007).
